The values below come from patent publication US12678514B2, “Algae-based microrobot for drug delivery” (priority 2023, dated 2026).

Values after ≈ are worked out from the molar mass of the structure shown.

Data set [1] concerns B16-F10-Luc2 melanoma lung metastasis. The data set can be described thus: In vivo efficacy in a lung metastasis model. Further details: species or system C57BL/6 mice.
Text: This model was established by intravenously injecting 1×10^5 B16-F10-Luc2 cells through the tail vein of C57BL/6 mice. The treatment regimen consisted of four 75-μg DOX doses given every other day, with the first dose administered one day after the tumor challenge. […] We also quantified the overall lung metastasis burden based on the bioluminescence intensity in the lungs (FIG. 16d). […] Additionally, we monitored for changes in body weight during the entire treatment period (FIG. 16g).
In vivo efficacy in a lung metastasis model. […] The mice received treatment with free DOX, NP(DOX) and algae-NP(DOX)-robot through intratracheal instillation on days 1, 3, 5 and 7 after tumor cell inoculation. Mice without treatment were used as controls. To monitor tumor growth, on days 12, 16, 20, 24 and 28 after tumor cell inoculation, the mice were intraperitoneally administered 200 μl of 5 mg ml^−1 D-luciferin (Syd Labs) in DPBS (Gibco). Bioluminescence signals were detected using a PerkinElmer Xenogen IVIS 200 system. The body weight and survival of each mouse were also monitored throughout the study.
Data set [2] in a line: In vivo safety evaluation of algae-NP(DOX)-robot. Also noted: species or system C57BL/6 mice. The procedure:
In vivo toxicity assessment of algae-NP(DOX)-robot. Finally, the toxicity profile of the algae-NP(DOX)-robot was assessed. Healthy mice were subjected to intratracheal administration using one of three different treatments: algae-NP(DOX)-robot, free DOX, and NP(DOX). Each mouse received a total of four 75-μg DOX doses given every other day. A blood count and a comprehensive metabolic panel were performed one day after the final injection to assess the effects of these treatments.
In vivo safety evaluation. Healthy female C57BL/6 mice were intratracheally administered with free DOX, NP(DOX) and algae-NP(DOX)-robot every other day for a total of four injections. Mice without treatment were used as controls. At 24 h following the last treatment, blood samples were collected via submandibular puncture into Microvette 100 EDTA K3E tubes (Sarstedt) for blood cell quantification. To collect serum for comprehensive blood chemistry analysis, blood samples were obtained without any anticoagulant, placed at room temperature for 30 min, and centrifuged at 3000 g for 10 min. Both the blood cell quantification and blood chemistry analyses were performed by the Animal Care Program Diagnostic Services Laboratory at UCSD. For histological analysis, the heart, liver, spleen, lungs and kidneys were excised and fixed in phosphate-buffered 10% formalin (Fisher Chemical), followed by sectioning and hematoxylin and eosin staining. These histological procedures were conducted by the Moores Cancer Center Tissue Technology Shared Resource.

Another data set concerns P. aeruginosa. Kind of data set: In vitro antibacterial activity (MIC, minimal bactericidal concentration). Format: cell-based, Pseudomonas aeruginosa. Particulars: CFU enumeration.

In turn, `COc1cccc2c1C(=O)c1c(O)c3c(c(O)c1C2=O)C[C@@](O)(C(=O)CO)C[C@@H]3O[C@H]1C[C@H](N)[C@H](O)[C@H](C)O1` [free DOX, doxorubicin] showed a median survival time in data set [1] (four 75-μg DOX doses intratracheal) of 27 days. The “body weight during treatment” value in data set [1] (mouse, in vivo) is “pronounced decline in body weight”. Besides, the “liver and kidney biomarkers (ALB, ALP, ALT, BUN, TBIL, CRE)” value in data set [2] (four 75-μg DOX doses, one day after final dose) is “no abnormalities”. In data set [2] (mouse, in vivo), the “histology of heart, liver, spleen, lungs and kidneys” value is “no observable damage”; the “other biomarkers (CA, GLU, PHOS, K+, Na+, TP)” value was “within their normal ranges”; the “white blood cells, red blood cells and platelets” value is on record as “elevated platelet levels”.

In the data set with P. aeruginosa, `O=C(O)c1cn(C2CC2)c2cc(N3CCNCC3)c(F)cc2c1=O` [free Cip, ciprofloxacin] had a minimal bactericidal concentration of 0.125 µg/mL (≈ 0.377 µM).
